# Legend:
# in vivo = details: mouse, ip
# Procedure: To determine this toxicity, C.F.L.P. strain albino mice of both sexes, weighing between 19 and 25 grams, have been used as experimental animals. After an 18 hour fast period with water "ad libitum" the derivatives which are the subjects of the present invention are administered intraperitoneally in 5% suspension in gum arabic. The volume of suspension administered has in all cases been 0.4 ml/20 grams (20 ml/kg), changing the concentration of the suspension according to the dose administered.
# One hour after the administration of the derivatives, the animals are supplied with Panlab standard rat-mouse feed. The period of observation of mortality has been 7 days.
# [1] = test system: Staphylococcus aureus ATCC 25178; test: MIC in vitro; format: cell-based; details: ATCC25178, Dextrose agar, 37° C., 20 hours
# Procedure: (§1) (G. L. Daquet and Y. A. Chabbect, Techniques en bacteriologie (Bacteriological techniques), vol. 3, Flammarion Medecine Sciences, Paris, 1972 and W. B. Hugo and A. D. Rusell, Pharmaceutical Microbiology, Blackwell Scientific Publications, London, (1977)). Antibiotic medium no. 1 (seed agar) (Oxoid CM 327) Tryptone-soya broth (Oxoid CM 129) Ringer's physiological solution 1/4 (oxoid BR 52) Dextrose agar (BBL-11165) 0.1 N NaOH "Staphylococcus aureus" ATCC 25178 Each of the microorganisms is seeded by streaking in tubes of Antibiotic medium No. 1 (seed agar), which are then incubated at 37° C. for 20 hours. Using a culture loop, the cultures are then seeded in tryptone-soyabroth and incubated at 37° C. for 20 hours. The culture obtained is diluted to 1/4 with Ringer's physiological solution, so as to obtain a standardized suspension of 10^7 -10^9 cfu/ml for each organism. Starting from a solution of 1,000 μg/ml in 0.1 N NaOH, each product is diluted in Dextrose agar (previously melted and maintained at 50° C.), with successive dilutions so as to obtain the following concentrations: 64--32--16--8--4--2--1--0.5--0.25--0.125 μg of derivative/ml medium. For each product, the solution of each concentration is subsequently distributed into Petri dishes 10 cm in diameter, with 10 ml of medium per dish and the same number of dishes as microorganisms to be tested. As soon as the medium has cooled, the dishes are seeded with the inoculations using 0.4 ml of inoculation per dish. They are spread with a Driglasky loop and the supernatant is removed. The seeded dishes are incubated at 37° C. for 20 hours.
# [2] = test system: Pseudomonas aeroginosa ADSA 47; test: MIC in vitro; format: cell-based, Pseudomonas aeruginosa; details: ADSA47, Dextrose agar, 37° C., 20 hours
# Procedure: as §1, with “"Pseudomonas aeruginosa" ADSA 47” for “"Staphylococcus aureus" ATCC 25178”
# Proteus morganii CHSP 16 = test: MIC in vitro; format: cell-based; details: Morganella morganii, CHSP16, Dextrose agar, 37° C., 20 hours
# Procedure: as §1, with “"Proteus morganii" CHSP 16” for “"Staphylococcus aureus" ATCC 25178”
SMILES,LD50 at 168 h (in vivo) [mg/kg],MIC [1] [µg/mL],MIC [2] [µg/mL],MIC (Proteus morganii CHSP 16) [µg/mL]
"CCn1cc(C(=O)O)c(=O)c2cc(F)c(-n3cccc3)nc21 [Example 4, 1-ethyl-1,4-dihydro-4-oxo-6-fluoro-7-(1-pyrrolyl)-1,8-naphthyridine-3-carboxylic acid]",> 1000,0.5,> 64,4
"CCn1cc(C(=O)O)c(=O)c2ccc(-n3cccc3)cc21 [Example 1, 7-(1-pyrrolyl)-1-ethyl-1,4-dihydro-4-oxo-3-quinolinecarboxylic acid]",> 800,1,> 64,8
"CCn1cc(C(=O)O)c(=O)c2cc(F)c(-n3cccc3)cc21 [Example 2, 6-fluoro-7-(1-pyrrolyl)-1-ethyl-1,4-dihydro-4-oxo-3-quinolinecarboxylic acid]",> 1600,0.25,64,2
"CCn1cc(C(=O)O)c(=O)c2ccc(-n3cccc3)nc21 [Example 3, 1-ethyl-1,4-dihydro-4-oxo-7-(1-pyrrolyl)-1,8-naphthyridine-3-carboxylic acid]",900,4,> 64,8
"CCn1cc(C(=O)O)c(=O)c2cnc(N3CCNCC3)nc21 [Pipemidic acid, reference compound]",–,64,32,8

# Source: patent US4552882A, “7-(1-Pyrrolyl) derivatives of 1-ethyl-1,4-dihydro-4-oxoquinoline-3-carboxylic acids and 1-ethyl-1,4-dihydro-4-oxo-1,8-naphthyridine-3-carboxylic acids and their use as antimicrobial agents” (Provesan, SA, priority 1983, dated 1985)
